Laboratory results published in US6610735B2, “Method, compositions and kits for increasing the oral bioavailability of pharmaceutical agents” (Baker Norton Pharmaceuticals, Inc., priority 1995, dated 2003).
One block for each compound: values may come before it.

How the values were obtained:
[1] = Whole blood radioactivity of 3H-etoposide with/without oral cyclosporin (Example 6, NP960102); assay type: in vivo, rats; details: Grp C: CsA 5/PO, then Etoposide 1/PO + CsA 5/PO
[2] = Whole blood radioactivity of oral 3H-etoposide with oral ketoconazole (Example 7, NP960501); assay type: in vivo, rats; details: ketoconazole 2, 10, 50 mg/kg oral
[3] = male, Sprague-Dawley, rat, in vivo
[4] = tested on: highly resistant human KB carcinoma cells; details: cited from earlier work
[5] = Serum paclitaxel after IV or oral paclitaxel with/without oral cyclosporin (Example 1); assay type: in vivo, Sprague Dawley rats
[6] = rat, in vivo, iv
[7] = rat, in vivo, po
[8] = in vivo, po; cited from earlier work
[9] = Total radioactivity and unchanged paclitaxel pharmacokinetics, rats n = 10 (Tables 5A, 5B)
[10] = Whole blood and urine radioactivity after radiolabeled paclitaxel with/without cyclosporin (Example 3)

- F% [1]: about 96%
Compound: COc1cc([C@@H]2c3cc4c(cc3[C@@H](O[C@@H]3O[C@@H]5CO[C@@H](C)O[C@H]5[C@H](O)[C@H]3O)[C@H]3COC(=O)[C@H]23)OCO4)cc(OC)c1O [Etoposide, etoposide]

Compound: CC(=O)N1CCN(c2ccc(OCC3COC(Cn4ccnc4)(c4ccc(Cl)cc4Cl)O3)cc2)CC1 (centres unmarked) [Ketoconazole, ketoconazole]
- effect on oral absorption of etoposide compared to etoposide alone [2]: did not enhance the oral absorption of etoposide
- dose-response of oral absorption of radioactivity [3]: no further increase in oral absorption of radioactivity
- reversal of MDR [4]: reverse MDR

Compound: CC(=O)O[C@H]1C(=O)[C@@]2(C)[C@H]([C@H](OC(=O)c3ccccc3)[C@]3(O)C[C@H](OC(=O)[C@H](O)[C@@H](NC(=O)c4ccccc4)c4ccccc4)C(C)=C1C3(C)C)[C@]1(OC(C)=O)CO[C@@H]1C[C@@H]2O [Paclitaxel, paclitaxel]
- bioavailability of the paclitaxel in serum ([5]; oral paclitaxel in the absence of cyclosporin): less than 1%
- bioavailability of the paclitaxel in serum ([5]; third group: cyclosporin 1 h prior to and with oral paclitaxel): 6-7%
- % Dose in urine (4-24 hr) [6]: 2.2 % Dose
- F (%) Based on AUC0-00, total radioactivity [7]: 16.4%
- absorbed when administered orally [8]: less than 1%
- AUC0-24hr, unchanged paclitaxel ([9]; PO + CsA): 4.27 µg·h/mL
- AUC0-[…], unchanged paclitaxel ([9]; PO + CsA): 5.41 µg·h/mL
- AUC0-[…], unchanged paclitaxel ([9]; PO Dose): 0.349 µg·h/mL
- AUC0-24hr, unchanged paclitaxel ([9]; PO Dose 9 mg/kg): 0.314 µg·h/mL
- AUC0-00, total radioactivity ([9]; Paclitaxel Oral 9 mg/kg): 4.5 μg equiv.hr/mL
- AUC0-24hr, total radioactivity ([9]; Paclitaxel Oral 9 mg/kg): 1.4 μg equiv.hr/mL
- AUC0-00, total radioactivity ([9]; Paclitaxel Oral + CsA): 15.0 μg equiv.hr/mL
- AUC0-24hr, total radioactivity ([9]; Paclitaxel Oral + CsA 5 mg/kg 1 hr prior to and concomitantly): 8.1 μg equiv.hr/mL
- AUC0-24, total radioactivity in blood ([10]; PO (B)): 3.2 μg eq × hr/ml
- Tmax ([10]; PO (B) column as printed): 25 h
- AUC0-24, total radioactivity in blood ([10]; PO+CsA (C), CsA 1 hr prior to and simultaneously): 12.1 μg eq × hr/ml
